Literature values as cited in patent publication US20090136549A1, “TRANSDERMAL PATCH CONTAINING RASAGILINE FOR TREATMENT OR PROPHYLAXIS OF NERVOUS SYSTEM DISEASE AND ITS PREPARATION PROCESS” (Chongqing Pharmaceutical Research Institute Co., Ltd., priority 2006, published 2009).

What was measured:
patients with early PD = conditions: rasagiline 2 mg/d for 1 year
[1] = oral administration

reduction of blood peak concentration by eating [1]: 60%
Structure (SMILES): C#CCN[C@@H]1CCc2ccccc21 [rasagiline]
mean UPDRS score lower than that of the patients administered with placebo in the last 6 months (patients with early PD): 2.29 units | mean UPDRS score lower than that of the patients administered with rasagiline 1 mg/d for 1 year (patients with early PD): 1.82 units
